Measured values as given in patent publication US20090170886A1 (Pfizer Inc, priority 2005, published 2009).
Substitutions are numbered along the chain they refer to. Where two headings read alike, the source gives them in different places.

Key:
[1] = molecular target: T1, androgen receptor in MDA-MB453-MMTV clone 54-19 cells (Homo sapiens, UniProt P10275); experiment: AR Antagonist Cell Assay (MMTV-luciferase reporter, DHT-induced); assay type: cell-based; details: MDA-MB453-MMTV clone 54-19, 100 pM DHT, 17 hr; mean of multiple tests
T1 sequence (P10275 1-920 Q868H): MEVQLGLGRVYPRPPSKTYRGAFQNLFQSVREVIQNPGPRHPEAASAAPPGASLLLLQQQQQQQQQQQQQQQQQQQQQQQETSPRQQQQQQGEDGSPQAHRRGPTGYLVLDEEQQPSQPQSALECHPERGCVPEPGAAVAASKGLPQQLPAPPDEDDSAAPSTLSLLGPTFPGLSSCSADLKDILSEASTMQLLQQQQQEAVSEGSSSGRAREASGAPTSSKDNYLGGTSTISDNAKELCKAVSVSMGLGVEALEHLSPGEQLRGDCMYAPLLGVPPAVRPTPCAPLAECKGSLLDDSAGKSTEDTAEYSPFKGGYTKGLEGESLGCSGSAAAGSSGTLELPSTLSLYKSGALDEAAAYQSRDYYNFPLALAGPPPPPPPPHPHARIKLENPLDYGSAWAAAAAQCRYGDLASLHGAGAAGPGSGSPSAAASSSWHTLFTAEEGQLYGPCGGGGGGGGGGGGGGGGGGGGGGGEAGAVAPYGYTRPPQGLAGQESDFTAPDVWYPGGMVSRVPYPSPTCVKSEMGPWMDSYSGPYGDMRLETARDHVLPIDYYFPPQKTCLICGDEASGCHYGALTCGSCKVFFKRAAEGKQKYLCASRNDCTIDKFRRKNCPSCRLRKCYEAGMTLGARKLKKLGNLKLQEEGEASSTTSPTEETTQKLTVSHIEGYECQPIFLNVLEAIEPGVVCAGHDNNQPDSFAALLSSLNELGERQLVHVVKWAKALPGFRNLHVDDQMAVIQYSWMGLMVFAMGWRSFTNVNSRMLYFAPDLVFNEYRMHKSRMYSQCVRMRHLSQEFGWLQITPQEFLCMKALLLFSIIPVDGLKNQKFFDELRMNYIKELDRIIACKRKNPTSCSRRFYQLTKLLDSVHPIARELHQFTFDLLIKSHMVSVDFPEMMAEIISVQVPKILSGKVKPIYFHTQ
Method: The compounds ability to antagonize the effects of androgen on the androgen receptor were determined in a whole cell assay as described immediately below.
Cell line: MDA-MB453-MMTV clone 54-19. This cell line is a stable transfected cell line with MDA-MB453 cell background (a human breast tumor cell line expressing androgen receptor). A MMTV minimal promoter containing ARE was first cloned in front of a firefly luciferase reporter gene. Then the cascade was cloned into transfection vector pUV120puro. Electroporation method was used for transfecting MDA-MB-453 cell. Puromycin resistant stable cell line was selected.
Culture medium: DMEM (high glucose, Gibco cat #: 11960-044), 10% FBS, and 1% L-glutamine
Plating medium: DMEM (phenol red free), 10% charcoal treated HyClone serum, 1% L-glutamine
Assay medium: DMEM (phenol red free), 1% charcoal treated HyClone serum, 1% L-glutamine, and 1% penicillin/streptomycin
3× luciferase buffer: 2% beta-mercaptoethanol, 0.6% ATP, 0.0135% luciferine in cell lysis buffer
Cells are maintained in culture medium, splitting cells when they reach 80-90% confluence. To test compounds, 10,000 cells/well are plated to opaque 96 cell culture plate in 100 ul/well plating medium, culture for overnight at 37° C. in cell culture incubator. Carefully remove plating medium, then add 80 ul/well of pre-warmed assay medium, add 10 ul/well testing compound (final concentration at) 1000 nM, 200 nM, 40 nM, 8 nM, 1.6 nM, and 0.32 nM), incubate at 37° C. for 30 minutes. Add 10 ul/well freshly prepared DHT (final concentration at 100 pM) to each well, incubate at 37° C. for 17 hr (overnight). Add 50 ul/well 3× luciferase buffer, incubate at room temperature for 5 minutes, then count on Luminometer. The fold induction over background by 100 pM DHT in the absence of testing compounds is standardized as 100% and experimental result is expressed as percentage of inhibition by testing compounds.
The results are reported as the mean of multiple tests as described below (the numbers of tests are indicated in the footnote). ND denotes that the compound was not tested.

[2] = molecular target: T2, hAR (human androgen receptor, baculovirus/Sf9 generated extracts) (Homo sapiens, UniProt P10275); experiment: AR Binding Assay (competitive binding with 3H-DHT tracer); details: 1 nM 3H-DHT, one hour at 4° C., mean of multiple tests
T2 construct: made in house; host or cells: baculovirus/Sf9 insect cells (crude extract)
T2 sequence (P10275 1-920): T1 sequence (P10275 1-920 Q868H) with H868Q
Method: The compounds of Formula I have affinity for the androgen receptor. […] The description below describes how the assay was carried out.
Competitive binding analysis was performed on baculovirus/Sf9 generated hAR extracts in the presence or absence of different concentrations of test agent and a fixed concentration of ^3H-dihydrotestosterone (^3H-DHT) as tracer. This binding assay method is a modification of a protocol previously described (Liao S., et. al., J. Steroid Biochem., 20:11-17, 1984). Briefly, progressively decreasing concentrations of compounds are incubated in the presence of hAR extract (Chang et al., P.N.A.S., Vol. 89, pp. 5546-5950, 1992), hydroxylapatite, and 1 nM ^3H-DHT for one hour at 4° C. Subsequently, the binding reactions are washed three times to completely remove excess unbound ^3H-DHT. hAR bound ^3H-DHT levels are determined in the presence of compounds (i.e. competitive binding) and compared to levels bound when no competitor is present (i.e. maximum binding). Compound binding affinity to the hAR is expressed as the concentration of compound at which one half of the maximum binding is inhibited. Table II below provides the results that were obtained for selected compounds (reported data is the mean of multiple tests as shown below).

[3] = hAR extract, read-out: AR Binding IC50

Row | Structure (SMILES) | IC50 [1] [nM] | IC50 ([2]; AR Binding IC50, hAR extract) [nM] | IC50 [2, 3] [nM]
1 | CC(Oc1ccc(C#N)c(C(F)(F)F)c1)c1cccc(C#N)c1 (single isomer, unassigned) [Example 78, 4-[1-(3-Cyano-phenyl)-ethoxy]-2-trifluoromethyl-benzonitrile] | 47 | 37 | –
2 | CC(Oc1ccc(C#N)c(C(F)(F)F)c1)c1cccc(O)c1 (single isomer, unassigned; (+)) [Example 10, (+)-4-[1-(3-Hydroxyphenyl)ethoxy]-2-(trifluoromethyl)benzonitrile] | ≥ 1000 | 3 | –
3 | CCC(Oc1ccc(C#N)c(C(F)(F)F)c1)c1cccc(O)c1 (single isomer, unassigned; (+)) [Example 12, (+)4-[1-(3-Hydroxyphenyl)propoxy]-2-(trifluoromethyl)benzonitrile] | > 1000 | 19 | –
4 | C=CCC(Oc1ccc(C#N)c(C(F)(F)F)c1)c1cccc(O)c1 (single isomer, unassigned; (+)) [Example 18, (+)4-{[1-(3-Hydroxyphenyl)but-3-enyl]oxy}-2-(trifluoromethyl)benzonitrile] | 86 | 17 | –
5 | CCC(Oc1ccc(C#N)c(C(F)(F)F)c1)c1cccc(O)c1 (single isomer, unassigned; (-)) [Example 13, (−)4-[1-(3-Hydroxyphenyl)propoxy]-2-(trifluoromethyl)benzonitrile] | 31 | 23 | –
6 | C[C@H](Oc1ccc(C#N)c(C(F)(F)F)c1)c1ccccc1 [Example 2, (S)-4-(1-Phenyl-ethoxy)-2-trifluoromethyl-benzonitrile] | 381 | 13 | –
7 | C[C@@H](Oc1ccc(C#N)c(C(F)(F)F)c1)c1ccccc1 [Example 3, (R)-4-(1-Phenyl-ethoxy)-2-trifluoromethyl-benzonitrile] | 61 | 3 | –
8 | COc1cccc(C(C)Oc2ccc(C#N)c(C(F)(F)F)c2)c1 (stereo not drawn) [Example 4, 4-[1-(3-Methoxy-phenyl)-ethoxy]-2-t-trifluoromethyl-benzonitrile] | > 1000 | – | 78
9 | COc1ccccc1C(C)Oc1ccc(C#N)c(C(F)(F)F)c1 (stereo not drawn) [Example 5, 4-[1-(2-Methoxy-phenyl)-ethoxy]-2-t-trifluoromethyl-benzonitrile] | > 1000 | – | 312
10 | C=CC(Oc1ccc(C#N)c(C(F)(F)F)c1)c1cccc(O)c1 (stereo not drawn) [Example 16, 4-{[1-(3-Hydroxyphenyl)prop-2-enyl]oxy}-2-(trifluoromethyl)benzonitrile] | 416 | 11 | –
11 | CC(Oc1ccc(C#N)c(C(F)(F)F)c1)c1ccccc1Cl (stereo not drawn) [Example 22, 4-[1-(2-Chloro-phenyl)-ethoxy]-2-trifluoromethyl-benzonitrile] | 102 | – | 108
12 | CC(Oc1ccc(C#N)c(C(F)(F)F)c1)c1ccccc1F (stereo not drawn) [Example 24, 4-[1-(2-Fluoro-phenyl)-ethoxy]-2-trifluoromethyl-benzonitrile] | 826 | 79 | –
13 | CC(Oc1ccc(C#N)c(C(F)(F)F)c1)c1ccc(F)cc1 (stereo not drawn) [Example 25, 4-[1-(4-Fluoro-phenyl)-ethoxy]-2-trifluoromethyl-benzonitrile] | 92 | 137 | –
14 | CC(Oc1ccc(C#N)c(C(F)(F)F)c1)c1cccc(Cl)c1 (stereo not drawn) [Example 26, 4-[1-(3-Chloro-phenyl)-ethoxy]-2-trifluoromethyl-benzonitrile] | 56 | 122 | –
15 | Cc1cccc(C(C)Oc2ccc(C#N)c(C(F)(F)F)c2)c1 (stereo not drawn) [Example 28, 4-(1-m-Tolyl-ethoxy)-2-trifluoromethyl-benzonitrile] | 573 | 50 | –
16 | CC(Oc1ccc(C#N)c(C(F)(F)F)c1)c1cccc(C#N)c1 (stereo not drawn) [Example 30, 4-[1-(3-Cyano-phenyl)-ethoxy]-2-trifluoromethyl-benzonitrile] | 7 | 22 | –
17 | CC(Oc1ccc(C#N)c(C(F)(F)F)c1)c1ccccc1C(F)(F)F (stereo not drawn) [Example 31, 2-Trifluoromethyl-4-[1-(2-trifluoromethyl-phenyl)-ethoxy]-benzonitrile] | 398 | – | 146
18 | C[C@@H](Oc1ccc(C#N)c(C(F)(F)F)c1)c1ccccn1 [Example 36, (R)-(+)-4-(1-Pyridin-2-yl-ethoxy)-2-trifluoromethyl-benzonitrile] | 28 | 54 | –
19 | CC(C)(Oc1ccc(C#N)cc1Cl)c1ccccc1 [Example 37, 3-Chloro-4-(1-methyl-1-phenyl-ethoxy)-benzonitrile] | > 1000 | – | 184
20 | N#Cc1ccc(OCc2cccc(O)c2)c(Cl)c1 [Example 41, 3-Chloro-4-(3-hydroxy-benzyloxy)-benzonitrile] | 286 | – | 76
21 | CCCCCCC(Oc1ccc(C#N)c(C(F)(F)F)c1)c1ccccc1 (stereo not drawn) [Example 46, 4-(1-Phenyl-heptyloxy)-2-trifluoromethyl-benzonitrile] | > 1000 | – | 204
